From patent US8197833B2, “Liquid concentrate for preserving cosmetics” (Air Liquide Sante (International), priority 1999, dated 2012)

Legend:
Format in all cases: physicochemical
[1] = Compatibility with cosmetics additives (absence of precipitates and/or severe discolorations); settings: 18.75% water
Protocol: (§1) To 100 parts by weight of a preparation consisting of 18.75% by weight of K sorbate, 31.25% by weight of phenoxyethanol, 31.25% by weight of benzyl alcohol and 18.75% by weight of demineralized water were added, in individual experiments, up to 4 parts by weight of a number of cosmetics additives, and the compatibility was tested (test for absence of precipitates and/or severe discolorations). […] The above-mentioned preparation was incompatible with the antimicrobial active ingredients Vantocil IB (polyhexamethylene biguanide), bronopol and dibromodicyanobutane since in each case the addition of these active ingredients and storage led to severe discoloration of the solution.
as §1, with “of 15%” for “of 18.75%”, “sorbate, 30%” for “sorbate, 31.25%”, “of Na benzoate, 5%” for “of phenoxyethanol, 31.25%”, “of phenoxyethanol” for “of benzyl alcohol”, “and 50%” for “and 18.75%”, “The abovementioned” for “The above-mentioned”
A preparation consisting of 18.75% by weight of K sorbate, 28.75% by weight of benzyl alcohol, 28.75% by weight of phenoxyethanol, 18.75% by weight of demineralized water and 5% by weight of cosmetics additive was prepared.

[2] = as above; settings: Example 6B: up to 4 parts additive to 100 parts of 15% K sorbate, 30% Na benzoate, 5% phenoxyethanol, 50% water
[3] = Colour stability, Hazen colour number; settings: addition to liquid concentrates, Examples 5D-5F
Protocol: The Hazen colour number is the number of mg of platinum [as potassium hexachloroplatinate (IV) containing cobalt (II) chloride hexahydrate in a ratio of 1.246:1 dissolved in 1000 ml of aqueous hydrochloric acid] which has virtually the same colour as the sample when the path length is the same.
Improvement in the Colour Stability of the Liquid Concentrates According to the Invention

[4] = Example 6A: up to 4 parts additive to 100 parts of 18.75% K sorbate, 31.25% phenoxyethanol, 31.25% benzyl alcohol
[5] = Example 6C: 5% additive in 18.75% K sorbate, 28.75% benzyl alcohol, 28.75% phenoxyethanol

Row | Compound | compatibility of additive with preparation [1, 4] | compatibility of additive with preparation [2] | compatibility of additive with preparation [1, 5] | effect of additive on colour stability [3]
1 | Cc1cc(C(C)(C)C)c(O)c(C(C)(C)C)c1 [2,6-di-tert-butyl-p-cresol] | sufficiently compatible | sufficiently compatible |  | 
2 | CC1(C)C(=O)N(CO)C(=O)N1CO [Glydant XL 1000, 1,3-dimethylol-5,5-dimethylhydantoin] | sufficiently compatible | sufficiently compatible |  | 
3 | benzalkonium chloride | sufficiently compatible | sufficiently compatible |  | 
4 | CCCCNC(=O)OCC#CI [iodopropynylbutyl carbamate] | sufficiently compatible | sufficiently compatible |  | 
5 | O=C([O-])CC(O)(CC(=O)[O-])C(=O)[O-].[Na+].[Na+].[Na+] [sodium citrate] |  |  |  | significantly improves the colour stability
6 | O=[N+]([O-])C(Br)(CO)CO [bronopol] | incompatible | incompatible |  | 
7 | Cl/C=C\C[N+]12CN3CN(CN(C3)C1)C2.[Cl-] [Dowicil 200] |  |  | sufficiently compatible | 
8 | N#CCCC(Br)(C#N)CBr (stereo not drawn) [dibromodicyanobutane] | incompatible | incompatible |  | 
9 | OCCCc1ccccc1 [3-phenyl-1-propanol] | sufficiently compatible | sufficiently compatible |  | 
10 | O=C1O[C@H]([C@@H](O)CO)C(O)=C1O [ascorbic acid] | sufficiently compatible | sufficiently compatible |  | 
11 | COc1ccc(O)c(C(C)(C)C)c1 [3-tert-butyl-4-hydroxyanisole] | sufficiently compatible | sufficiently compatible |  | 

More lines, main results first:

Row | compatibility of additive with preparation [1, 4] | compatibility of additive with preparation [2] | compatibility of additive with preparation [1, 5] | Compound | effect of additive on colour stability [3]
12 |  |  | sufficiently compatible | COC(=O)c1ccc(O)cc1 [methylparaben] | 
13 | sufficiently compatible | sufficiently compatible |  | O=C1O[C@H]([C@@H](O)CO)C([O-])=C1O.[Na+] [sodium ascorbate] | 
14 | sufficiently compatible | sufficiently compatible |  | O=C([O-])C(O)c1ccccc1.[K+] (stereo not drawn) [potassium salt of mandelic acid] | 
15 | sufficiently compatible | sufficiently compatible |  | OCCc1ccccc1 [phenethyl alcohol] | 
16 | sufficiently compatible | sufficiently compatible |  | vitamin E | 
17 | sufficiently compatible | sufficiently compatible |  | CC(C)=CCCC(C)=CCCC(C)=CCO [farnesol] | 
18 |  |  | sufficiently compatible | CCCOC(=O)c1ccc(O)cc1 [propylparaben] | 
19 | sufficiently compatible | sufficiently compatible |  | CC(C)(CO)[C@@H](O)C(=O)NCCCO [dexpanthenol] | 
20 | sufficiently compatible | sufficiently compatible |  | CCOC(=O)c1ccc(O)cc1 [ethylparaben] | 
